Where two headings read alike, the source gives them in different places.
How the values were obtained:
[1] = MTT assay, (photo)cytotoxicity toward HeLa cells; assay type: cell-based; details: human, HeLa cells, read-out: cell viability
Procedure: (§1) HeLa and HEK-293 cells were seeded in a 96-well flat-bottomed microplate (≈ 10,000 cells per well) in growth medium (100 µL) and incubated at 37°C under a 5% CO2 atmosphere for […]
(§2) 48 h. The growth medium was removed, and then incubated with either fresh growth medium or complexes 1a – 3a, with concentrations ranging from 10–5 to 10−8 M, in growth medium/DMSO (99:1, v/v) at 37°C for 3 h. The growth medium was removed and replaced with either fresh growth medium or ICPrc-Bn (200 µM) in growth medium/DMSO (99:1, v/v) at 37°C for 4 h. Wells containing untreated cells were used as a blank control. Wells containing cells treated with ICPrc-Bn (200 µM) alone for 4 h were used as a complex-free control. For evaluation of photocytotoxicity, the treated cells were incubated in phenol red-free growth medium (100 µL). One of the microplates was irradiated at 365 nm (5 mW cm−2) with an LED cellular photocytotoxicity irradiator (PURI Materials, Shenzhen, China) for […], whereas the other one was kept in the dark for 10 min. The cells were then incubated in fresh growth medium (100 µL) in the dark for 24 h. A solution containing MTT in PBS (10 µL, 5 mg mL−1) and fresh growth medium (90 µL) was added to each well. The microplate was incubated at 37°C for 4 h. The growth medium was removed, and DMSO (200 µL) was added to each well.
(§3) After 20 min, the absorbance of the solutions at 570 nm was measured with a Multiskan SkyHigh Microplate Spectrophotometer (Thermo Scientific). The IC50 values of the complex were determined from the dose dependence of surviving cells after the treatment using the OriginPro 8.0 software package. For dual-release studies, the cells were incubated with complex 3a, with concentrations ranging from 10–5 to 10−8 M, in growth medium/DMSO (99:1, v/v) at 37°C for 3 h, and replaced with either fresh growth medium or ICPrc-Dox (10 or 50 µM) in growth medium/DMSO (99:1, v/v) at 37°C for 4 h. Wells containing cells treated with ICPrc-Dox (10 or 50 µM) alone for 4 h were used as a complex-free control. Wells containing cells treated with cisplatin (3 h) or Dox (4 h), with concentrations ranging from 10–5 to 10−8 M, in growth medium/DMSO (99:1, v/v) at 37°C were used as positive controls. Furthermore, to evaluate the maximum therapeutic effect of the dual release, concentrations of complex 3b and Dox were serially diluted in a 1:1 ratio to serve as a reference, assuming similar cellular uptake […]
(§4) of complex 3a with 3b and ICPrc-Dox with Dox. Briefly, HeLa cells were incubated with complex 3b, with concentrations ranging from 10–5 to 10−8 M, in growth medium/DMSO (99:1, v/v) at 37°C for 3 h, and replaced with either fresh growth medium or Dox, with concentrations ranging from 10–5 to 10−8 M, in growth medium/DMSO (99:1, v/v) at 37°C for 4 h.

[2] = MTT assay, (photo)cytotoxicity toward HEK-293 cells; assay type: cell-based; details: human, HEK-293 cells, read-out: cell viability
Procedure: as §1, §2
(§5) After 20 min, the absorbance of the solutions at 570 nm was measured with a Multiskan SkyHigh Microplate Spectrophotometer (Thermo Scientific). The IC50 values of the complex were determined from the dose dependence of surviving cells after the treatment using the OriginPro 8.0 software package. […]

[3] = Stability of ICPr/ICPrc derivatives in serum (HPLC); assay type: in vitro ADME; details: 25 µM in 25% FBS, 37 °C, dark
Procedure: was incubated with ICPr-coum (80 µM) in aerated McIlvaine buffer (pH 7.4 or 5.0)/CH3CN (4:1, v/v) at 37°C. The reactions at different time points were quenched by the addition of 900 µL of cold H2O/CH3CN (1:1, v/v) and then analyzed by RP-HPLC. The HPLC analysis was conducted following the elution conditions specified for the reaction kinetic studies. The release yields were plotted against time. The half-lives (t1/2) were defined as the time required for the concentration of the reactant to decrease by half of its initial quantity, obtained through an exponential fit of the curve. The release yields were defined as the quantity of the final product, umbelliferone, liberated in the reaction. Furthermore, to evaluate the effect of ether versus carbamate linkages within the ICPr/ICPrc moiety on release kinetics, the half-lives of ICPr-coum, ICPr-fluorescein, and ICPrc-Dox were determined by HPLC analyses. Equimolar mixtures of complex 3a (50 µM) and each ICPr/ICPrc derivative (50 µM) were incubated in aerated McIlvaine buffer (pH 7.4)/DMSO (4:1, v/v) at 37°C. The reactions at different time points were quenched by the addition of 900 µL of cold H2O/CH3CN (1:1, v/v) and then […]
Stability of ICPr/ICPrc Derivatives in Serum
ICPr-fluorescein or ICPrc-Dox (25 µM) was incubated in 25% FBS at 37 °C in the dark for 48 h. […]

[4] = tested on: HeLa cells; assay: MTT assay, (photo)cytotoxicity toward HeLa cells; assay type: cell-based
Procedure: as §1, §2, §3, §4

[5] = tested on: HEK‐293 cells; assay: MTT assay, (photo)cytotoxicity toward HEK-293 cells; assay type: cell-based
Procedure: as §1, §2, §5

[6] = 1O2 generation quantum yield from 1O2 emission at around 1270 nm; assay type: physicochemical; details: aerated CH3CN, 298 K; λex = 350 nm; reference phenalenone
Procedure: (§6) The ^1O2 generation efficiencies of the complexes were evaluated by monitoring the emission band of ^1O2 centered at around 1270 nm^[ [34], [35] ^] in aerated CH3CN. […] Considering the pH‐dependent emission properties of complexes 1b–3b, we believe that their ^1O2 photosensitization efficiencies would also be influenced by pH. Taking complex 3b as an example, its ^1O2 generation efficiency was evaluated in aerated McIlvaine buffer solutions at various pH levels by the 9,10‐anthracenediyl‐bis(methylene)dimalonic acid (ABDA) assay.^[ [36] ^] […] Thus, the TzMe complexes are anticipated to function as pH‐sensitive phosphorogenic bioorthogonal probes, enabling simultaneous detection and photodynamic therapy in lysosomal compartments (pH ≈ 4.5–5.0)^[ [37], [38] ^] and acidic TME.

[7] = 1O2 generation quantum yield by ABDA assay in McIlvaine buffer; assay type: physicochemical; details: 298 K
Procedure: as §6, with “TME. […]” for “TME.”
where the subscripts s and r refer to the sample and reference solutions, respectively, Φ is 1O2 quantum yield, m is the slope of a linear fit of the change of absorbance at 378 nm against the irradiation time, B is 1 – 10–AL, A is absorbance at the excitation wavelength, and L is path […]
To confirm the liberation of ICPr/ICPrc -caged compounds during the reaction, the concurrent release of compounds from their respective tetrazine and ICPr/ICPrc caging groups was studied by RP-HPLC analysis. Complex 3a (50 µM) and ICPr -coum (40 µM) were incubated in aerated McIlvaine buffer (pH 7.4)/DMSO (4:1, v/v) at 37°C for 18 h. The reaction mixture was subjected to HPLC analysis. The HPLC analysis was performed using an Agilent analytical column (ZORBAX Eclipse Plus C18 column: 4.6 × 150 mm, 5 µm) with a linear gradient of 0 − 100% solvent B over 12 min and a flow rate of 1 mL min −1. The emission was monitored at the emission peak maxima of the released products, umbelliferone (also known as 7 - hydroxycoumarin) (λex = 350 nm, λem = 460 nm) and complex 3b (λex = 350 nm, λem = 562 nm). […] The emission spectrum was recorded on a HORIBA FluoroMax-4 spectrofluorometer. […] The reaction was monitored by HPLC analyses after incubation for 4 and 24 h.

[8] = ICPrc‐Dox (10 or 50 µM) alone, dark and irradiation
[9] = ICPrc‐Bn (200 µM) alone for 4 h, subsequently irradiated
[10] = – ICPrc‐Bn, irradiation at 365 nm (5 mW cm−2) for 5 min, read-out: IC50,light

[C-]#[N+]CCCOC(=O)NC1CC(OC2CC(O)(C(=O)CO)Cc3c(O)c4c(c(O)c32)C(=O)c2c(OC)cccc2C4=O)OC(C)C1O (centres unmarked) [ICPrc‐Dox, N-(3-isocyanopropyl-1-carbamoyl)doxorubicin, reference compound]
viability at 4 h [1, 8]: > 98%
viability at 4 h [2, 8]: > 98%
time stable in serum [3]: over 48 h

COc1cccc2c1C(=O)c1c(O)c3c(c(O)c1C2=O)C[C@@](O)(C(=O)CO)C[C@@H]3O[C@H]1C[C@H](N)[C@H](O)[C@H](C)O1 [Dox, doxorubicin, reference compound]
IC50 ([4]; Homo sapiens, Table 2, no ICPrc‐Dox (3a 3 h then fresh medium 4 h; Dox 4 h), dark, read-out: IC50,dark): 5.8 ± 0.6 µM
IC50 ([4]; Homo sapiens, light or radiation study, 5 min, Table 2, no ICPrc‐Dox, irradiation at 365 nm (5 mW cm−2) for 5 min, read-out: IC50,light): 5.3 ± 0.6 µM
PI (IC50,dark/IC50,light) ([4]; Table 2, no ICPrc‐Dox): 1
IC50 ([5]; Homo sapiens, HEK293, Table 2, no ICPrc‐Dox, dark, read-out: IC50,dark): > 50 µM
IC50 ([5]; Homo sapiens, HEK293, light or radiation study, 5 min, Table 2, no ICPrc‐Dox, irradiation at 365 nm (5 mW cm−2) for 5 min, read-out: IC50,light): 43 ± 2 µM
PI (IC50,dark/IC50,light) ([5]; Table 2, no ICPrc‐Dox): > 1

[C-]#[N+]CCCOc1ccc2c(-c3ccccc3C(=O)O)c3ccc(=O)cc-3oc2c1 [ICPr‐fluorescein]
time stable in serum [3]: at least 48 h

O=S(=O)([O-])C(F)(F)F.O=[C]=[Re-2]1(=[C]=O)(=[C]=O)([n+]2cccc(O)c2)[n+]2ccc(-c3ccccc3)c3ccc4c(-c5ccccc5)cc[n+]1c4c32 [complex 3b, [Re(N^N)(CO)3(py‐OH)](CF3SO3)]
PI (IC50,dark/IC50,light) ([4]; Table S10): 6
IC50 ([4]; Table S10, 3b 3 h then fresh medium or Dox (1:1 ratio) 4 h, dark, read-out: IC50,dark): 29 µM
IC50 ([4]; Table S10, 3b 3 h then fresh medium or Dox (1:1 ratio) 4 h, irradiation at 365 nm (5 mW cm−2) for 5 min, read-out: IC50,light): 5.1 µM
1O2 generation quantum yield (ΦΔ) [6]: 0.63
1O2 generation quantum yield (ΦΔ) ([7]; aerated McIlvaine buffer pH 3.0/CH3CN (4:1, v/v)): 0.24
1O2 generation quantum yield (ΦΔ) ([7]; aerated McIlvaine buffer pH 5.0/CH3CN (4:1, v/v)): 0.12
1O2 generation quantum yield (ΦΔ) ([7]; aerated McIlvaine buffer pH 7.4/CH3CN (4:1, v/v)): Negligible

[C-]#[N+]CCCOC(=O)NCc1ccccc1 [ICPrc‐Bn, 3‐isocyanopropyl benzylcarbamate, reference compound]
viability at 4 h, 200 µM [1, 9]: > 98%
viability at 4 h, 200 µM [2, 9]: > 98%

N.N.[Cl][Pt][Cl] [Cisplatin, cisplatin, reference compound]
IC50 ([4]; – ICPrc‐Bn (complex 3 h, fresh medium 4 h; cisplatin 3 h), dark, read-out: IC50,dark): > 50 µM
IC50 [4, 10]: > 50 µM
IC50 ([5]; – ICPrc‐Bn, dark, read-out: IC50,dark): > 50 µM
IC50 [5, 10]: > 50 µM

Reference: paper PMC12684313, “Controlled Dual Activation of Rhenium(I) Photosensitizers and Profluorophores/Prodrugs via a Dissociative Bioorthogonal Tetrazine–Isonitrile Reaction” (Angewandte Chemie (International Ed. in English), 2025)
